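Briefly, cells in 96-well plates were exposed to five compound concentrations for 48 h, and endpoints were estimated by linear interpolation. Abbreviation: GI50, concentration required for 50% inhibition of growth. TGI: total growth inhibition.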
Experiments:
Assay in all cases: DTP human tumour cell line panel, 48 h
A498 renal = test system: A498 renal
HCC-2998 colon = test system: HCC-2998 colon
HCT-116 colon = test system: HCT-116 colon
LOX IMVI melanoma = test system: LOX IMVI melanoma
M14 melanoma = test system: M14 melanoma
MDA-MB-435 = test system: MDA-MB-435
MOLT-4 leukemia = test system: MOLT-4 leukemia
RXF 393 renal = test system: RXF 393 renal
SN12C renal = test system: SN12C renal
SW-620 colon = test system: SW-620 colon

**Q.** With `COC(=O)c1cc(C)[nH]c2c(C)cc3nc4ccccc4c3c12` as the compound, how does the GI50 (A498 renal) read?
**A.** 6.07 µM

**Q.** What about the TGI (A498 renal) of the same compound?
**A.** 21.2 µM

**Q.** What about the GI50 (HCC-2998 colon) of the same compound?
**A.** 8.99 µM

**Q.** What about the TGI (HCC-2998 colon) of the same compound?
**A.** 23.9 µM

**Q.** And the GI50 (HCT-116 colon)?
**A.** 10.2 µM

**Q.** What about the TGI (HCT-116 colon) of the same compound?
**A.** 23 µM

**Q.** And the GI50 (LOX IMVI melanoma)?
**A.** 5.38 µM

**Q.** And the TGI (LOX IMVI melanoma)?
**A.** 32.2 µM

**Q.** What about the GI50 (M14 melanoma) of the same compound?
**A.** 11 µM

**Q.** And the TGI (M14 melanoma)?
**A.** 23.7 µM

**Q.** And the GI50 (MDA-MB-435)?
**A.** 9.01 µM

**Q.** And the TGI (MDA-MB-435)?
**A.** 22.2 µM

**Q.** What about the GI50 (MOLT-4 leukemia) of the same compound?
**A.** 4.83 µM

**Q.** What about the TGI (MOLT-4 leukemia) of the same compound?
**A.** 42.2 µM

**Q.** What about the GI50 (RXF 393 renal) of the same compound?
**A.** 11.6 µM

**Q.** What about the TGI (RXF 393 renal) of the same compound?
**A.** 25 µM

**Q.** And the GI50 (SN12C renal)?
**A.** 11.7 µM

**Q.** And the TGI (SN12C renal)?
**A.** 30.8 µM

**Q.** What about the GI50 (SW-620 colon) of the same compound?
**A.** 7.91 µM

**Q.** And the TGI (SW-620 colon)?
**A.** 27 µM

**Q.** What does the source list for `Cc1cn2cc(-c3ccc4c(c3)CC(=O)N4)nc2s1`?
**A.** GI50 (A498 renal): > 100 µM; TGI (A498 renal): > 100 µM; GI50 (HCC-2998 colon): 46.2 µM; TGI (HCC-2998 colon): > 100 µM; GI50 (HCT-116 colon): 70.1 µM; TGI (HCT-116 colon): > 100 µM; GI50 (LOX IMVI melanoma): 20.5 µM; TGI (LOX IMVI melanoma): > 100 µM; GI50 (M14 melanoma): > 100 µM; TGI (M14 melanoma): > 100 µM; GI50 (MDA-MB-435): 91 µM; TGI (MDA-MB-435): > 100 µM; GI50 (MOLT-4 leukemia): 50.7 µM; TGI (MOLT-4 leukemia): > 100 µM; GI50 (RXF 393 renal): > 100 µM; TGI (RXF 393 renal): > 100 µM; GI50 (SN12C renal): > 100 µM; TGI (SN12C renal): > 100 µM; GI50 (SW-620 colon): 34 µM; TGI (SW-620 colon): > 100 µM

**Q.** How did the GI50 (A498 renal) turn out when `C[C@@H](C[C@H](CCO)c1ccccc1)c1ccc2ccccc2c1` was run?
**A.** 1.16 µM

**Q.** What about the TGI (A498 renal) of the same compound?
**A.** 2.42 µM

**Q.** What about the GI50 (HCC-2998 colon) of the same compound?
**A.** 1.74 µM

**Q.** And the TGI (HCC-2998 colon)?
**A.** 3.27 µM

**Q.** And the GI50 (HCT-116 colon)?
**A.** 1.36 µM

**Q.** What about the TGI (HCT-116 colon) of the same compound?
**A.** 2.67 µM

**Q.** And the GI50 (LOX IMVI melanoma)?
**A.** 1.6 µM

**Q.** What about the TGI (LOX IMVI melanoma) of the same compound?
**A.** 2.96 µM

**Q.** What about the GI50 (M14 melanoma) of the same compound?
**A.** 1.46 µM

**Q.** What about the TGI (M14 melanoma) of the same compound?
**A.** 2.84 µM

**Q.** And the GI50 (MDA-MB-435)?
**A.** 1.56 µM

**Q.** And the TGI (MDA-MB-435)?
**A.** 2.95 µM

**Q.** And the GI50 (MOLT-4 leukemia)?
**A.** 0.356 µM

**Q.** What about the TGI (MOLT-4 leukemia) of the same compound?
**A.** 1.61 µM

**Q.** What about the GI50 (RXF 393 renal) of the same compound?
**A.** 1.45 µM

**Q.** And the TGI (RXF 393 renal)?
**A.** 2.91 µM

**Q.** What about the GI50 (SN12C renal) of the same compound?
**A.** 1.69 µM

**Q.** What about the TGI (SN12C renal) of the same compound?
**A.** 3.22 µM

**Q.** And the GI50 (SW-620 colon)?
**A.** 1.63 µM

**Q.** And the TGI (SW-620 colon)?
**A.** 3.14 µM

**Q.** Which results are given for `C=C(CN1CCN(c2ccc(F)c(Cl)c2)CC1)c1ccc(C(=O)Nc2ccccc2N)cc1`?
**A.** GI50 (A498 renal): 9.67 µM; TGI (A498 renal): 44.1 µM; GI50 (HCC-2998 colon): 9.47 µM; TGI (HCC-2998 colon): 24.9 µM; GI50 (HCT-116 colon): 3.08 µM; TGI (HCT-116 colon): 10.3 µM; GI50 (LOX IMVI melanoma): 3.47 µM; TGI (LOX IMVI melanoma): 12.5 µM; GI50 (M14 melanoma): 2.65 µM; TGI (M14 melanoma): 11.6 µM; GI50 (MDA-MB-435): 3.2 µM; TGI (MDA-MB-435): 12.6 µM; GI50 (MOLT-4 leukemia): 0.764 µM; TGI (MOLT-4 leukemia): 4 µM; GI50 (RXF 393 renal): 3.84 µM; TGI (RXF 393 renal): 39.2 µM; GI50 (SN12C renal): 5.1 µM; TGI (SN12C renal): 59.5 µM; GI50 (SW-620 colon): 5.37 µM; TGI (SW-620 colon): > 100 µM

**Q.** How did the TGI (A498 renal) turn out when `COc1ccc2c(c1)[nH]c1c3ccc(OC)cc3oc(=O)c21` was run?
**A.** > 100 µM

**Q.** And the TGI (HCC-2998 colon)?
**A.** > 100 µM

**Q.** What about the TGI (HCT-116 colon) of the same compound?
**A.** > 100 µM

**Q.** What about the TGI (LOX IMVI melanoma) of the same compound?
**A.** > 100 µM

**Q.** And the TGI (M14 melanoma)?
**A.** > 100 µM

**Q.** And the TGI (MDA-MB-435)?
**A.** > 100 µM

**Q.** What about the TGI (MOLT-4 leukemia) of the same compound?
**A.** > 100 µM

**Q.** And the TGI (RXF 393 renal)?
**A.** > 100 µM

**Q.** What about the TGI (SN12C renal) of the same compound?
**A.** > 100 µM

**Q.** And the TGI (SW-620 colon)?
**A.** > 100 µM

**Q.** How did the GI50 (A498 renal) turn out when `O=C(N/N=C/c1ccc(N(CCCl)CCCl)cc1)c1ccc(C(=O)N/N=C/c2ccc(N(CCCl)CCCl)cc2)cc1` was run?
**A.** 15.1 µM

**Q.** What about the TGI (A498 renal) of the same compound?
**A.** > 100 µM

**Q.** What about the GI50 (HCC-2998 colon) of the same compound?
**A.** 86.8 µM

**Q.** And the TGI (HCC-2998 colon)?
**A.** > 100 µM

**Q.** And the GI50 (HCT-116 colon)?
**A.** 2.48 µM

**Q.** What about the TGI (HCT-116 colon) of the same compound?
**A.** > 100 µM

**Q.** And the GI50 (LOX IMVI melanoma)?
**A.** 1.4 µM

**Q.** And the TGI (LOX IMVI melanoma)?
**A.** > 100 µM

**Q.** What about the GI50 (M14 melanoma) of the same compound?
**A.** 3.79 µM

**Q.** What about the TGI (M14 melanoma) of the same compound?
**A.** > 100 µM

**Q.** And the GI50 (MDA-MB-435)?
**A.** 29.8 µM

**Q.** What about the TGI (MDA-MB-435) of the same compound?
**A.** > 100 µM

**Q.** What about the GI50 (MOLT-4 leukemia) of the same compound?
**A.** 0.226 µM

**Q.** And the TGI (MOLT-4 leukemia)?
**A.** > 100 µM

**Q.** And the GI50 (RXF 393 renal)?
**A.** 7.63 µM

**Q.** What about the TGI (RXF 393 renal) of the same compound?
**A.** > 100 µM

**Q.** And the GI50 (SN12C renal)?
**A.** 0.232 µM

**Q.** What about the TGI (SN12C renal) of the same compound?
**A.** > 100 µM

**Q.** What about the GI50 (SW-620 colon) of the same compound?
**A.** 19.5 µM

**Q.** And the TGI (SW-620 colon)?
**A.** > 100 µM

**Q.** Which results are given for `C[C@H]1CC[C@@H]2[C@@H](C)[C@H]3[C@H](C[C@H]4[C@@H]5CC=C6C[C@@H](O)CC[C@]6(C)[C@H]5CC[C@]34C)N2C1`?
**A.** TGI (A498 renal): 41.7 µM; TGI (HCC-2998 colon): > 100 µM; TGI (HCT-116 colon): > 100 µM; TGI (LOX IMVI melanoma): > 100 µM; TGI (M14 melanoma): > 100 µM; TGI (MDA-MB-435): > 100 µM; TGI (MOLT-4 leukemia): > 100 µM; TGI (RXF 393 renal): 46.1 µM; TGI (SN12C renal): > 100 µM; TGI (SW-620 colon): > 100 µM

**Q.** How did the GI50 (A498 renal) turn out when `CC1=C(SCCC(=O)OC(C[Se]C2=C(C)C(=O)c3ccccc3C2=O)C(=O)NC(C)(C)C)C(=O)c2ccccc2C1=O` (stereo not given) was run?
**A.** 1.55 µM

**Q.** And the TGI (A498 renal)?
**A.** 2.97 µM

**Q.** And the GI50 (HCC-2998 colon)?
**A.** 1.59 µM

**Q.** And the TGI (HCC-2998 colon)?
**A.** 2.96 µM

**Q.** And the GI50 (HCT-116 colon)?
**A.** 0.384 µM

**Q.** What about the TGI (HCT-116 colon) of the same compound?
**A.** 1.44 µM

**Q.** What about the GI50 (LOX IMVI melanoma) of the same compound?
**A.** 1.4 µM

**Q.** And the TGI (LOX IMVI melanoma)?
**A.** 2.9 µM

**Q.** And the GI50 (M14 melanoma)?
**A.** 1.32 µM

**Q.** What about the TGI (M14 melanoma) of the same compound?
**A.** 2.67 µM

**Q.** And the GI50 (MDA-MB-435)?
**A.** 1.77 µM

**Q.** And the TGI (MDA-MB-435)?
**A.** 3.77 µM

**Q.** And the GI50 (MOLT-4 leukemia)?
**A.** 0.274 µM

**Q.** What about the TGI (MOLT-4 leukemia) of the same compound?
**A.** 1.31 µM

**Q.** What about the GI50 (RXF 393 renal) of the same compound?
**A.** 1.73 µM

**Q.** And the TGI (RXF 393 renal)?
**A.** 3.33 µM

**Q.** What about the GI50 (SN12C renal) of the same compound?
**A.** 1.47 µM

**Q.** And the TGI (SN12C renal)?
**A.** 2.99 µM

**Q.** What about the GI50 (SW-620 colon) of the same compound?
**A.** 1.36 µM

**Q.** And the TGI (SW-620 colon)?
**A.** 2.87 µM

— PubChem BioAssay (NCI)
